Laboratory results published in US20080275134A1, “Methods for Treatment of Retinal Degenerative Disease” (University of Washington, priority 2005, published 2008).
“Also recorded” adds a separate entry of the source.

Assays:
[1] = test system: retinyl acetate hydrolase; experiment: direct assay of retinyl acetate hydrolase present in the RPE; assay type: biochemical; conditions: direct assays
[2] = test system: visual function (a-wave and b-wave); experiment: single flash ERG responses of treated mice; assay type: in vivo, mouse
Experimental: A. Chromatographic separation of nonpolar retinoids from WT mouse eyes. Mice were gavaged with all-trans-Ret-NH2 24 hours prior to bleaching for 20 min at 150 cd·m^−2 W in the Ganzfeld chamber. Regeneration of 11-cis-retinal was allowed for 24 hours in the dark, and retinoids were extracted from the eye and separated by normal phase HPLC as described in Materials and Methods. The peaks were identified based on elution time and absorption spectra correspond to the following retinoids: 1, all-trans-retinyl esters; 2,2′, syn- and anti-11-cis-retinal oximes; 3, syn-all-trans-retinal oxime; 4,4′, syn- and anti-9-cis-retinal oximes; 5, all-trans-retinol. B. Changes of 11-cis-retinal oxime levels at increasing doses of all-trans-Ret-NH2 during 5 hours or 24 hours of dark adaptation. Square indicates the level of 11-cis-retinal oximes that was present in mice gavaged with vegetable oil without retinoids just after bleaching, and arrow indicates the increase of visual chromophore during 5 hours of dark adaptation. Triangles correspond to the level of 11-cis-retinal found in the mice gavaged with 50 mg/kg of 13-cis-RA. C and D. Single flash ERG responses of increasing intensity for all-trans-Ret-NH2 treated mice and control mice. Serial responses to increasing flash stimuli were obtained for all-trans-Ret-NH2 treated and control mice for selected intensities (C) and plotted as a function of a-wave and b-wave versus varying light intensities under dark-adapted conditions (D) before bleach and at 5 hours and 24 hours after bleach. The dark-adapted mice were bleached with intense constant illumination (150 cd·m^−2) for 20 min. […] SE bars are shown. […]
The conclusions derived from the analysis of retinoids of Ret-NH2-treated mice were supported by ERG analysis of visual functions. […] Next, the impact of all-trans-Ret-NH2 administration on the visual physiology of wild-type mice was evaluated in vivo with ERGs. […]

Row | SMILES | inhibition of retinyl acetate hydrolase [1] | dark-adapted ERG a- and b-wave responses after bleach ([2]; 50 mg/kg single dose, 20 min bleach, 5 and 24 hours after, P<0.0001 vs control) | light-adapted (photopic) ERG responses, cone function ([2]; 50 mg/kg single dose, before and 5 and 24 hours after bleach, p>0.1 vs control) | dark-adapted ERG before bleach ([2]; 24 hours after 50 mg/kg gavage)
1 | CC1=C(/C=C/C(C)=C/C=C/C(C)=C/CN)C(C)(C)CCC1 [Ret-NH2, Retinylamine] | did not inhibited | – | – | –
2 | CC1=C(/C=C/C(C)=C/C=C/C(C)=C/CN)C(C)(C)CCC1 [all-trans-Ret-NH2, all-trans-retinylamine] | – | significantly attenuated | attenuated weakly; also recorded: not affected by all-trans-Ret-NH2 to the same extent as rod function | normal waveforms and responses
